For this data set the following is noted: Crystal; DTA.

± gives the expanded uncertainty stated by the source.

For the molecule `CCCCCCCC(=O)OCC(COC(=O)CCCCCCC)OC(=O)CCCCCCC` [1,2,3-propanetriol trioctanoate], the Normal melting temperature is 9.60 ± 0.53 °C.
Under `CCCCCCCC/C=C\CCCCCCCC(=O)OCC(COC(=O)CCCCCCC/C=C\CCCCCCCC)OC(=O)CCCCCCC/C=C\CCCCCCCC` [1,2,3-tri(cis-9-octadecenoyl)glycerol] stands 5.27 ± 0.53 °C.
The result for `CCCCCCCCCCCCCCCC(=O)O` [hexadecanoic acid] reads 63.32 ± 0.53 °C.
The result for `CCCCCCCCCCCCCCCCCC(=O)O` [octadecanoic acid] reads 70.23 ± 0.53 °C.
As for `CCCCCCCCCCCCCC(=O)O` [tetradecanoic acid], the Normal melting temperature was found to be 55.41 ± 0.53 °C.
The result for `CC/C=C\C/C=C\C/C=C\CCCCCCCC(=O)OCC(COC(=O)CCCCCCC/C=C\C/C=C\C/C=C\CC)OC(=O)CCCCCCC/C=C\C/C=C\C/C=C\CC` [trilinolenin] reads -22.0 ± 0.53 °C.
